Measurements published in patent publication US20260007681A1, “INDOLE DERIVATIVES AS ESTROGEN RECEPTOR DEGRADERS” (REGENTS OF THE UNIVERSITY OF MICHIGAN, priority 2022, published 2026).

What follows are compounds tested against ER (Homo sapiens (Human), UniProt P03372) (assay: Western blot analysis (Compounds B1-B278)). Conditions: ER degradation by traditional Western blot; DC50 classes.
Type: cell-based
Outline: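 Relative target-protein levels come from densitometry of immunoblots, normalized to GAPDH. Lysates from treated cells were prepared in RIPA buffer (pH 7.6) containing protease inhibitors, and equal protein amounts, checked by BCA, were separated on 10% gels and blotted onto PVDF.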

ER, sequence (P03372 whole entry): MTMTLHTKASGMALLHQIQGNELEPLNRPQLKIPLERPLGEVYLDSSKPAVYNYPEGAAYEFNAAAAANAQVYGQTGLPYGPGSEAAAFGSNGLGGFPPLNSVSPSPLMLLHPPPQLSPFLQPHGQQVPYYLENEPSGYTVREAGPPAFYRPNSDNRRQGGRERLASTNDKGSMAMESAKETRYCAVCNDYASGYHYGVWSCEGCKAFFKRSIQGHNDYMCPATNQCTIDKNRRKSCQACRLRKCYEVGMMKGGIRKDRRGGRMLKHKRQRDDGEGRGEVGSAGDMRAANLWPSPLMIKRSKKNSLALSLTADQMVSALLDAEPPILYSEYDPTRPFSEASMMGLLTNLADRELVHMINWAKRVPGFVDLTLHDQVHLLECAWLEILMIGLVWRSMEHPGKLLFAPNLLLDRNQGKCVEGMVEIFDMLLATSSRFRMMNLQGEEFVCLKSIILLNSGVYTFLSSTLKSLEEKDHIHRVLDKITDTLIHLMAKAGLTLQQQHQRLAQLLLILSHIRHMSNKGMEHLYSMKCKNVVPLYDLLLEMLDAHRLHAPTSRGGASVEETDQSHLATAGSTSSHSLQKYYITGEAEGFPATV

Compound	Traditional Western Degradation Potency
C[C@@H]1Cc2c([nH]c3ccccc23)[C@@H](c2c(F)cc(C(=O)N3CCC4(CC3)CC(CN3Cc5cc6c(cc5C3)C(=O)N(C3CCC(=O)NC3=O)C6=O)C4)cc2F)N1CC(F)F (stereo partly drawn) [Compound B97, 6-((7-(4-((1R,3R)-2-(2,2-difluoroethyl)-3-methyl-2,3,4,9-tetrahydro-1H-pyrido[3,4-b]indol-1-yl)-3,5-difluorobenzoyl)-7-azaspiro[3.5]nonan-2-yl)methyl)-2-(2,6-dioxopiperidin-3-yl)-6,7-dihydropyrrolo[3,4-f]isoindole-1,3(2H,5H)-dione]	C (“C”: >100 nM)
C[C@@H]1Cc2c([nH]c3ccccc23)[C@@H](c2c(F)cc(CN3CCC4(CC3)CC(CN3Cc5cc6c(cc5C3)C(=O)N(C3CCC(=O)NC3=O)C6=O)C4)cc2F)N1CC(F)F (stereo partly drawn) [Compound B98, 6-((7-(4-((1R,3R)-2-(2,2-difluoroethyl)-3-methyl-2,3,4,9-tetrahydro-1H-pyrido[3,4-b]indol-1-yl)-3,5-difluorobenzyl)-7-azaspiro[3.5]nonan-2-yl)methyl)-2-(2,6-dioxopiperidin-3-yl)-6,7-dihydropyrrolo[3,4-f]isoindole-1,3(2H,5H)-dione]	C (“C”: >100 nM)
C[C@@H]1Cc2c([nH]c3ccccc23)[C@@H](c2c(F)cc(C(=O)N3CCC4(CCC(CN5Cc6cc7c(cc6C5)C(=O)N(C5CCC(=O)NC5=O)C7=O)CC4)CC3)cc2F)N1CC(F)F (stereo partly drawn) [Compound B99, 6-((3-(4-((1R,3R)-2-(2,2-difluoroethyl)-3-methyl-2,3,4,9-tetrahydro-1H-pyrido[3,4-b]indol-1-yl)-3,5-difluorobenzoyl)-3-azaspiro[5.5]undecan-9-yl)methyl)-2-(2,6-dioxopiperidin-3-yl)-6,7-dihydropyrrolo[3,4-f]isoindole-1,3(2H,5H)-dione]	C (“C”: >100 nM)
C[C@@H]1Cc2c([nH]c3ccccc23)[C@H](c2c(F)cc(C(=O)N3CCC4(CCC(CN5Cc6cc7c(cc6C5)C(=O)N(C5CCC(=O)NC5=O)C7=O)CC4)CC3)cc2F)N1CC(F)F (stereo partly drawn) [Compound B100, 6-((3-(4-((1S,3R)-2-(2,2-difluoroethyl)-3-methyl-2,3,4,9-tetrahydro-1H-pyrido[3,4-b]indol-1-yl)-3,5-difluorobenzoyl)-3-azaspiro[5.5]undecan-9-yl)methyl)-2-(2,6-dioxopiperidin-3-yl)-6,7-dihydropyrrolo[3,4-f]isoindole-1,3(2H,5H)-dione]	C (“C”: >100 nM)
C[C@@H]1Cc2c([nH]c3ccccc23)[C@@H](c2c(F)cc(CN3CCC4(CCC(CN5Cc6cc7c(cc6C5)C(=O)N(C5CCC(=O)NC5=O)C7=O)CC4)CC3)cc2F)N1CC(F)F (stereo partly drawn) [Compound B101, 6-((3-(4-((1R,3R)-2-(2,2-difluoroethyl)-3-methyl-2,3,4,9-tetrahydro-1H-pyrido[3,4-b]indol-1-yl)-3,5-difluorobenzyl)-3-azaspiro[5.5]undecan-9-yl)methyl)-2-(2,6-dioxopiperidin-3-yl)-6,7-dihydropyrrolo[3,4-f]isoindole-1,3(2H,5H)-dione]	C (“C”: >100 nM)
C[C@@H]1Cc2c([nH]c3ccccc23)[C@H](c2c(F)cc(CN3CCC4(CCC(CN5Cc6cc7c(cc6C5)C(=O)N(C5CCC(=O)NC5=O)C7=O)CC4)CC3)cc2F)N1CC(F)F (stereo partly drawn) [Compound B102, 6-((3-(4-((1S,3R)-2-(2,2-difluoroethyl)-3-methyl-2,3,4,9-tetrahydro-1H-pyrido[3,4-b]indol-1-yl)-3,5-difluorobenzyl)-3-azaspiro[5.5]undecan-9-yl)methyl)-2-(2,6-dioxopiperidin-3-yl)-6,7-dihydropyrrolo[3,4-f]isoindole-1,3(2H,5H)-dione]	C (“C”: >100 nM)
C[C@@H]1Cc2c([nH]c3ccccc23)[C@@H](c2c(F)cc(CN3CCC4(CCC(C(=O)N5Cc6cc7c(cc6C5)C(=O)N(C5CCC(=O)NC5=O)C7=O)CC4)CC3)cc2F)N1CC(F)F (stereo partly drawn) [Compound B103, 6-(3-(4-((1R,3R)-2-(2,2-difluoroethyl)-3-methyl-2,3,4,9-tetrahydro-1H-pyrido[3,4-b]indol-1-yl)-3,5-difluorobenzyl)-3-azaspiro[5.5]undecane-9-carbonyl)-2-(2,6-dioxopiperidin-3-yl)-6,7-dihydropyrrolo[3,4-f]isoindole-1,3(2H,5H)-dione]	C (“C”: >100 nM)
C[C@@H]1Cc2c([nH]c3ccccc23)[C@H](c2c(F)cc(CN3CCC4(CCC(C(=O)N5Cc6cc7c(cc6C5)C(=O)N(C5CCC(=O)NC5=O)C7=O)CC4)CC3)cc2F)N1CC(F)F (stereo partly drawn) [Compound B104, 6-(3-(4-((1S,3R)-2-(2,2-difluoroethyl)-3-methyl-2,3,4,9-tetrahydro-1H-pyrido[3,4-b]indol-1-yl)-3,5-difluorobenzyl)-3-azaspiro[5.5]undecane-9-carbonyl)-2-(2,6-dioxopiperidin-3-yl)-6,7-dihydropyrrolo[3,4-f]isoindole-1,3(2H,5H)-dione]	C (“C”: >100 nM)
C[C@@H]1Cc2c([nH]c3ccccc23)[C@@H](c2c(F)cc(C3CCN(C(=O)[C@H]4CC[C@@H](N5Cc6cc7c(cc6C5)C(=O)N(C5CCC(=O)NC5=O)C7=O)CC4)CC3)cc2F)N1CC(F)F (stereo partly drawn) [Compound B105, 6-((1S,4s)-4-(4-(4-((1R,3R)-2-(2,2-difluoroethyl)-3-methyl-2,3,4,9-tetrahydro-1H-pyrido[3,4-b]indol-1-yl)-3,5-difluorophenyl)piperidine-1-carbonyl)cyclohexyl)-2-(2,6-dioxopiperidin-3-yl)-6,7-dihydropyrrolo[3,4-f]isoindole-1,3(2H,5H)-dione]	B (“B”: 10-100 nM)
C[C@@H]1Cc2c([nH]c3ccccc23)[C@@H](c2c(F)cc(C3CCN(C(=O)[C@H]4CC[C@H](N5Cc6cc7c(cc6C5)C(=O)N(C5CCC(=O)NC5=O)C7=O)CC4)CC3)cc2F)N1CC(F)F (stereo partly drawn) [Compound B106, 6-((1R,4r)-4-(4-(4-((1R,3R)-2-(2,2-difluoroethyl)-3-methyl-2,3,4,9-tetrahydro-1H-pyrido[3,4-b]indol-1-yl)-3,5-difluorophenyl)piperidine-1-carbonyl)cyclohexyl)-2-(2,6-dioxopiperidin-3-yl)-6,7-dihydropyrrolo[3,4-f]isoindole-1,3(2H,5H)-dione]	A (“A”: <10 nM)
COc1cc([C@H]2CC[C@@H](C(=O)N3CCC(N4Cc5cc6c(cc5C4)C(=O)N(C4CCC(=O)NC4=O)C6=O)CC3)CC2)ncc1[C@@H]1c2[nH]c3ccccc3c2C[C@@H](C)N1CC(F)F (stereo partly drawn) [Compound B107, 6-(1-((1S,4s)-4-(5-((1R,3R)-2-(2,2-difluoroethyl)-3-methyl-2,3,4,9-tetrahydro-1H-pyrido[3,4-b]indol-1-yl)-4-methoxypyridin-2-yl)cyclohexane-1-carbonyl)piperidin-4-yl)-2-(2,6-dioxopiperidin-3-yl)-6,7-dihydropyrrolo[3,4-f]isoindole-1,3(2H,5H)-dione]	C (“C”: >100 nM)
COc1cc([C@H]2CC[C@H](C(=O)N3CCC(N4Cc5cc6c(cc5C4)C(=O)N(C4CCC(=O)NC4=O)C6=O)CC3)CC2)ncc1[C@@H]1c2[nH]c3ccccc3c2C[C@@H](C)N1CC(F)F (stereo partly drawn) [Compound B108, 6-(1-((1R,4r)-4-(5-((1R,3R)-2-(2,2-difluoroethyl)-3-methyl-2,3,4,9-tetrahydro-1H-pyrido[3,4-b]indol-1-yl)-4-methoxypyridin-2-yl)cyclohexane-1-carbonyl)piperidin-4-yl)-2-(2,6-dioxopiperidin-3-yl)-6,7-dihydropyrrolo[3,4-f]isoindole-1,3(2H,5H)-dione]	C (“C”: >100 nM)
C[C@@H]1Cc2c([nH]c3ccccc23)[C@@H](c2ncc(C3=CCC(C(=O)N4CCC(N5Cc6cc7c(cc6C5)C(=O)N(C5CCC(=O)NC5=O)C7=O)CC4)CC3)cc2F)N1CC(F)F (stereo partly drawn) [Compound B109, 6-(1-(4-(6-((1S,3R)-2-(2,2-difluoroethyl)-3-methyl-2,3,4,9-tetrahydro-1H-pyrido[3,4-b]indol-1-yl)-5-fluoropyridin-3-yl)cyclohex-3-ene-1-carbonyl)piperidin-4-yl)-2-(2,6-dioxopiperidin-3-yl)-6,7-dihydropyrrolo[3,4-f]isoindole-1,3(2H,5H)-dione]	C (“C”: >100 nM)
C[C@@H]1Cc2c([nH]c3ccccc23)[C@@H](c2c(F)cc(C3CCC(C(=O)N4CCC(N5Cc6cc7c(cc6C5)C(=O)N(C5CCC(=O)NC5=O)C7=O)CC4)CC3)cc2F)N1CC(F)(F)CO (stereo partly drawn) [Compound B110, 6-(1-(4-(4-((1R,3R)-2-(2,2-difluoro-3-hydroxypropyl)-3-methyl-2,3,4,9-tetrahydro-1H-pyrido[3,4-b]indol-1-yl)-3,5-difluorophenyl)cyclohexane-1-carbonyl)piperidin-4-yl)-2-(2,6-dioxopiperidin-3-yl)-6,7-dihydropyrrolo[3,4-f]isoindole-1,3(2H,5H)-dione]	C (“C”: >100 nM)
COc1cc([C@H]2CC[C@H](C(=O)N3CCC(N4Cc5cc6c(cc5C4)C(=O)N(C4CCC(=O)NC4=O)C6=O)CC3)CC2)ccc1[C@@H]1c2[nH]c3ccccc3c2C[C@@H](C)N1CC(F)F (stereo partly drawn) [Compound B111, 6-(1-((1R,4r)-4-(4-((1R,3R)-2-(2,2-difluoroethyl)-3-methyl-2,3,4,9-tetrahydro-1H-pyrido[3,4-b]indol-1-yl)-3-methoxyphenyl)cyclohexane-1-carbonyl)piperidin-4-yl)-2-(2,6-dioxopiperidin-3-yl)-6,7-dihydropyrrolo[3,4-f]isoindole-1,3(2H,5H)-dione]	B (“B”: 10-100 nM)
COc1cc([C@H]2CC[C@@H](C(=O)N3CCC(N4Cc5cc6c(cc5C4)C(=O)N(C4CCC(=O)NC4=O)C6=O)CC3)CC2)ccc1[C@@H]1c2[nH]c3ccccc3c2C[C@@H](C)N1CC(F)F (stereo partly drawn) [Compound B112, 6-(1-((1S,4s)-4-(4-((1R,3R)-2-(2,2-difluoroethyl)-3-methyl-2,3,4,9-tetrahydro-1H-pyrido[3,4-b]indol-1-yl)-3-methoxyphenyl)cyclohexane-1-carbonyl)piperidin-4-yl)-2-(2,6-dioxopiperidin-3-yl)-6,7-dihydropyrrolo[3,4-f]isoindole-1,3(2H,5H)-dione]	C (“C”: >100 nM)
